pEC50, pIC50: −log10 of the molar value. Values joined by “and” are separate entries in the source; they are usually repeats but may differ in a detail not shown here. Identical values can stand only once.
What was measured:
[1] = biological target: T1, GLS1 (purified recombinant human GAC) (Homo sapiens, UniProt O94925); test: GLS1 enzymatic activity assay (dual-coupled, Amplex UltraRed/resorufin); format: biochemical
T1 sequence (O94925 55-598 isoform O94925-3 limits assumed): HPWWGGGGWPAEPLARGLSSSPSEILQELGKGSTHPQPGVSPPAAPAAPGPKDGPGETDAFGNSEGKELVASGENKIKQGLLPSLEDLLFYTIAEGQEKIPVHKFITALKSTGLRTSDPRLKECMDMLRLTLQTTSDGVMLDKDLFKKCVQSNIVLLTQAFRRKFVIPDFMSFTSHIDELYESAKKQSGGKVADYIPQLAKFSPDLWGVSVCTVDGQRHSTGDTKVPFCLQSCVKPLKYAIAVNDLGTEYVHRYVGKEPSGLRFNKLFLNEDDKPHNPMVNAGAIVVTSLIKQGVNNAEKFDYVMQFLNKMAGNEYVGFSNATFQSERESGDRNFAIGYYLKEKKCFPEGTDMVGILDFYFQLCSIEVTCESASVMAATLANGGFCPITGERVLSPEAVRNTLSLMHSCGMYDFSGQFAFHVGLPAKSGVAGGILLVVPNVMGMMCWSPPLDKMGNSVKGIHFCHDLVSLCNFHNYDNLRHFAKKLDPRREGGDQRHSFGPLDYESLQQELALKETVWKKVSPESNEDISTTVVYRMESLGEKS
Method in brief: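 GAC activity measured by coupling glutamate to glutamate oxidase and HRP, generating resorufin from Amplex UltraRed. Enzyme (2 nM) preincubated with 50 mM potassium phosphate 10 min at room temperature, then inhibitor 10 min; 1 mM glutamine substrate, 1% DMSO. Fluorescence 530/590 nm, kinetic or 20-min endpoint; IC50 from four-parameter logistic fit.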

[2] = test system: A549 cells; test: A549 proliferation (viability) assay, Cell Titer Fluor, 72 hours; format: cell-based; conditions: Homo sapiens
Method in brief: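 Compound exposure lasted 72 h (final DMSO 0.5% v/v) on A549 cells plated at 1000 cells/well one day earlier. Cell Titer Fluor added, 30 min at 37 °C, fluorescence read; EC50 derived by four-parameter logistic curve fitting.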

Compound | pIC50 [1] | pEC50 [2]
CC(C)OC(=O)Nc1ccn(CCCCc2ccc(NC(=O)Cc3cccc(OC(F)(F)F)c3)nn2)c(=O)n1 [Example 102, propan-2-yl N-{2-oxo-1-[4-(6-{2-[3-(trifluoromethoxy)phenyl]acetamido}pyridazin-3-yl)butyl]-1,2-dihydropyrimidin-4-yl}carbamate] | > 7.00 | 6.30 to 7.00
O=C(Cc1cccc(OC(F)(F)F)c1)Nc1ccc(CCCCn2ccc(NC(=O)CC3CCCCC3)nc2=O)nn1 [Example 108, N-(6-{4-[4-(2-cyclohexylacetamido)-2-oxo-1,2-dihydropyrimidin-1-yl]butyl}pyridazin-3-yl)-2-[3-(trifluoromethoxy)phenyl]acetamide] | > 7.00 | > 7.00
O=C(CN1CCCC1)Nc1ccn(CCC(F)Cn2cc(C(=O)NCc3cccc(OC(F)(F)F)c3)nn2)c(=O)c1 (stereo not shown) [Example 270, 1-(2-fluoro-4-{2-oxo-4-[2-(pyrrolidin-1-yl)acetamido]-1,2-dihydropyridin-1-yl}butyl)-N-{[3-(trifluoromethoxy)phenyl]methyl}-1H-1,2,3-triazole-4-carboxamide] | 6.30 to 7.00 | 5.30 to 6.30
O=C(Nc1ccn(CCCCc2nnc(C(=O)NCc3ccccn3)s2)c(=O)n1)OCc1ccccc1 [Example 120, benzyl N-[2-oxo-1-(4-{5-[(pyridin-2-ylmethyl)carbamoyl]-1,3,4-thiadiazol-2-yl}butyl)-1,2-dihydropyrimidin-4-yl]carbamate] | 5.30 to 6.30 and 6.30 to 7.00 | 5.30 to 6.30
O=C(Cc1cccc(N2CCOCC2)c1)Nc1ccn(CCC(F)Cn2cc(C(=O)NCc3cccc(OC(F)(F)F)c3)nn2)c(=O)c1 (stereo not shown) [Example 237, 1-[2-fluoro-4-(4-{2-[3-(morpholin-4-yl)phenyl]acetamido}-2-oxo-1,2-dihydropyridin-1-yl)butyl]-N-{[3-(trifluoromethoxy)phenyl]methyl}-1H-1,2,3-triazole-4-carboxamide] | > 7.00 | 6.30 to 7.00
O=C(Cc1ccccc1)Nc1ccn(CCC(F)Cn2cc(C(=O)NCc3ncccc3F)nn2)c(=O)c1 (stereo not shown) [Example 151, 1-{2-fluoro-4-[2-oxo-4-(2-phenylacetamido)-1,2-dihydropyridin-1-yl]butyl}-N-[(3-fluoropyridin-2-yl)methyl]-1H-1,2,3-triazole-4-carboxamide] | 6.30 to 7.00 | 5.30 to 6.30
O=C(Cc1ccccc1)Nc1ccn(CCCCc2nnc(NC(=O)Cc3ccccc3)s2)c(=O)c1 [Example 31, N-(2-oxo-1-{4-[5-(2-phenylacetamido)-1,3,4-thiadiazol-2-yl]butyl}-1,2-dihydropyridin-4-yl)-2-phenylacetamide] | > 7.00 | 5.30 to 6.30
COCCOC(=O)Nc1ccn(CCCCc2ccc(NC(=O)Cc3cccc(OC(F)(F)F)c3)nn2)c(=O)n1 [Example 112, 2-methoxyethyl N-{2-oxo-1-[4-(6-{2-[3-(trifluoro-methoxy)phenyl]acetamido}pyridazin-3-yl)butyl]-1,2-dihydropyrimidin-4-yl}carbamate] | > 7.00 | 6.30 to 7.00
O=C(Cn1ccccc1=O)Nc1ccn(CCCCn2cc(C(=O)NCc3cccc(C(F)(F)F)c3)nn2)c(=O)c1 [Example 157, 1-(4-{2-oxo-4-[2-(2-oxo-1,2-dihydropyridin-1-yl)acetamido]-1,2-dihydropyridin-1-yl}butyl)-N-{[3-(trifluoromethyl)phenyl]methyl}-1H-1,2,3-triazole-4-carboxamide] | 5.30 to 6.30 | < 5.30
O=C(CC1CCCC1)Nc1ccn(CCCCc2nnc(NC(=O)NCc3ccccn3)s2)c(=O)c1F [Example 131, 2-cyclopentyl-N-(3-fluoro-2-oxo-1-(4-(5-(3-(pyridin-2-ylmethyl)ureido)-1,3,4-thiadiazol-2-yl)butyl)-1,2-dihydropyridin-4-yl)acetamide] | > 7.00 | 5.30 to 6.30
Cc1ccc(CNC(=O)c2cn(CC(F)CCn3ccc(NC(=O)CC4CCCO4)cc3=O)nn2)cn1 (stereo not shown) [Example 200, 1-(2-fluoro-4-{2-oxo-4-[2-(oxolan-2-yl)acetamido]-1,2-dihydropyridin-1-yl}butyl)-N-[(6-methylpyridin-3-yl)methyl]-1H-1,2,3-triazole-4-carboxamide] | 6.30 to 7.00 | 5.30 to 6.30
O=C(Cc1cccc(OC(F)(F)F)c1)Nc1ccc(CCCCn2ccc(NC(=O)OCc3ccccc3)nc2=O)nn1 [Example 24, Benzyl(2-oxo-1-(4-(6-(2-(3-(trifluoromethoxy)phenyl)acetamido)pyridazin-3-yl)butyl)-1,2-dihydropyrimidin-4-yl)carbamate] | > 7.00 | > 7.00
O=C(CC1CCCC1)Nc1ccn(CCCCn2cc(C(=O)NCc3cccc(OC(F)(F)F)c3)nn2)c(=O)c1 [Example 210, 1-{4-[4-(2-cyclopentylacetamido)-2-oxo-1,2-dihydropyridin-1-yl]butyl}-N-{[3-(trifluoromethoxy)phenyl]methyl}-1H-1,2,3-triazole-4-carboxamide] | > 7.00 | > 7.00
CCNC(=O)Nc1ccn(CCCCc2ccc(NC(=O)Cc3ccccc3)nn2)c(=O)n1 [Example 86, N-[6-(4-{4-[(ethylcarbamoyl)amino]-2-oxo-1,2-dihydropyrimidin-1-yl}butyl)pyridazin-3-yl]-2-phenylacetamide] | 5.30 to 6.30 | < 5.30

Results, then the molecule that gave them:

pIC50 [1] | pEC50 [2] | Compound
> 7.00 | > 7.00 | CC(=O)OC(C(=O)Nc1ccn(CC[C@H](F)Cn2cc(C(=O)NCc3cccc(OC(F)(F)F)c3)nn2)c(=O)c1F)c1ccccc1 (stereo partly drawn) [Example 305, (S)-[(3-fluoro-1-{3-fluoro-4-[4-({[3-(trifluoromethoxy)phenyl]methyl}carbamoyl)-1H-1,2,3-triazol-1-yl]butyl}-2-oxo-1,2-dihydropyridin-4-yl)carbamoyl](phenyl)methyl acetate]
> 7.00 | 6.30 to 7.00 | O=C(Cc1ccccn1)Nc1ccn(CCCCc2nnc(C(=O)NCc3cccc(OC(F)(F)F)c3)s2)c(=O)c1 [Example 456, 5-(4-{2-oxo-4-[2-(pyridin-2-yl)acetamido]-1,2-dihydropyridin-1-yl}butyl)-N-{[3-(trifluoromethoxy)phenyl]methyl}-1,3,4-thiadiazole-2-carboxamide]
> 7.00 | 6.30 to 7.00 | O=C(Nc1ccn(CCC(F)Cn2cc(C(=O)NCc3cc(C(F)(F)F)ccn3)nn2)c(=O)n1)OCc1ccccc1F (stereo not shown) [Example 501, (2-fluorophenyl)methyl N-(1-{3-fluoro-4-[4-({[4-(trifluoromethyl)pyridin-2-yl]methyl}carbamoyl)-1H-1,2,3-triazol-1-yl]butyl}-2-oxo-1,2-dihydropyrimidin-4-yl)carbamate]
> 7.00 | > 7.00 | O=C(CC1CCCC1)Nc1ccn(CCC(F)Cn2cc(C(=O)NCc3ccccn3)nn2)c(=O)c1F (stereo not shown) [Example 393, 1-{4-[4-(2-cyclopentylacetamido)-3-fluoro-2-oxo-1,2-dihydropyridin-1-yl]-2-fluorobutyl}-N-(pyridin-2-ylmethyl)-1H-1,2,3-triazole-4-carboxamide]
6.30 to 7.00 | 5.30 to 6.30 | N#Cc1ccc(CNC(=O)c2cn(CC(F)CCn3ccc(NC(=O)Cc4ccccc4)c(F)c3=O)nn2)cn1 (stereo not shown) [Example 380, N-[(6-cyanopyridin-3-yl)methyl]-1-{2-fluoro-4-[3-fluoro-2-oxo-4-(2-phenylacetamido)-1,2-dihydropyridin-1-yl]butyl}-1H-1,2,3-triazole-4-carboxamide]
> 7.00 | > 7.00 | Cc1ccc(CNC(=O)c2nnc(CCCCn3ccc(NC(=O)CC4CCC4)c(F)c3=O)s2)cn1 [Example 464, 5-(4-(4-(2-cyclobutylacetamido)-3-fluoro-2-oxopyridin-1(2H)-yl)butyl)-N-((6-methylpyridin-3-yl)methyl)-1,3,4-thiadiazole-2-carboxamide]
< 5.30 | < 5.30 | Nc1ccn(CCC(F)Cn2cc(C(=O)NCc3ccc(C(F)(F)F)nc3)nn2)c(=O)c1F (stereo not shown) [Example 366, 1-[4-(4-amino-3-fluoro-2-oxo-1,2-dihydropyridin-1-yl)-2-fluorobutyl]-N-{[6-(trifluoromethyl)pyridin-3-yl]methyl}-1H-1,2,3-triazole-4-carboxamide]
> 7.00 | > 7.00 | O=C(Nc1ccn(CCC(F)Cn2cc(C(=O)NCc3cccc(OC(F)(F)F)c3)nn2)c(=O)n1)OC1CCC(F)(F)CC1 (stereo not shown) [Example 498, 4,4-difluorocyclohexyl N-(1-{3-fluoro-4-[4-({[3-(trifluoro-methoxy)phenyl]methyl}carbamoyl)-1H-1,2,3-triazol-1-yl]butyl}-2-oxo-1,2-dihydropyrimidin-4-yl)carbamate]
> 7.00 | > 7.00 | O=C(CN1CCCCC1)Nc1ccn(CCC(F)Cn2cc(C(=O)NCc3cncc(C(F)(F)F)c3)nn2)c(=O)c1F (stereo not shown) [Example 351, 1-(2-fluoro-4-{3-fluoro-2-oxo-4-[2-(piperidin-1-yl)acetamido]-1,2-dihydropyridin-1-yl}butyl)-N-{[5-(trifluoromethyl)pyridin-3-yl]methyl}-1H-1,2,3-triazole-4-carboxamide]
